According to US11753446B2, “Beta-hairpin peptidomimetics” (POLYPHOR AG, priority 2014, dated 2023):
Where a SMILES comes first, the peptide text is derived from it. Bridges are numbered along the chain shown (N, C = ends). [ ]: non-standard residue; d: D form. Tle = CC(C)(C)[C@H](N)C(=O)O; dDab = NCC[C@@H](N)C(=O)O; Orn = NCCC[C@H](N)C(=O)O; Dab = NCC[C@H](N)C(=O)O; Dap = NC[C@H](N)C(=O)O

What was measured:
[1] = test system: human red blood cells (hRBC); assay: Hemolysis: hemolytic activity at 100 μg/mL, 1 h at 37° C.; conditions: red cells of human, 1 h, 100
Procedure, shortened: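 Peptides at 100 μg/mL incubated with washed 20% (v/v) human erythrocytes (~0.9×10^9 cells/mL) for 1 h at 37 °C with shaking. Released hemoglobin read at OD 540 nm in supernatant; 0% and 100% lysis from PBS/0.001% acetic acid and 2.5% Triton X-100.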

[2] = test system: Acinetobacter baumannii DSM 30008; format: cell-based; conditions: DSM 30008
Procedure, shortened: (§1)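 Peptide activity was tested by NCCLS broth microdilution with slight modifications. Bacteria were diluted in cation-adjusted Mueller-Hinton II broth to approximately 10^6 CFU/mL against a 0.5 McFarland standard. They were then exposed to two-fold serial peptide dilutions in broth containing 0.002% final polysorbate 80.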

[3] = test system: Klebsiella pneumoniae ATCC 13883; format: cell-based; conditions: ATCC 13883
Procedure, shortened: as §1

[4] = test system: Escherichia coli ATCC 25922; format: cell-based; conditions: ATCC 25922
Procedure, shortened: as §1

SMILES	Hemolysis at 100 μg/mL [1]	Acinetobacter baumannii DSM 30008 MIC [2]	Klebsiella pneumoniae ATCC 13883 MIC [3]	Escherichia coli ATCC 25922 MIC [4]
CC(C)C[C@@H]1NC(=O)[C@H](CCCNC(=N)N)NC(=O)[C@@H](CCCNC(=N)N)NC(=O)[C@H](C(C)C)NC(=O)[C@@H]2CSSC[C@H](NC1=O)C(=O)N[C@@H](Cc1ccc(O)cc1)C(=O)N[C@@H](CC(N)=O)C(=O)N[C@@H](CCCN)C(=O)N[C@H](CCN)C(=O)N[C@@H](CCN)C(=O)N[C@@H](Cc1c[nH]c3ccccc13)C(=O)N[C@@H](CO)C(=O)N[C@@H](Cc1ccc(O)cc1)C(=O)N2 [Example 66, cyclo(-Leu-Cys-Tyr-Asn-Orn-^DDab-Dab-Trp-Ser-Tyr-Cys-Val-^DArg-Arg-)] (HELM PEPTIDE1{C.V.[dR].R.L.C.Y.N.[Orn].[NCC[C@@H](N[*:1])C(=O)[*:2]].[Dab].W.S.Y}$PEPTIDE1,PEPTIDE1,1:R3-6:R3|PEPTIDE1,PEPTIDE1,1:R1-14:R2$$$V2.0)	2%	1.25 µg/mL	0.5 µg/mL	1 µg/mL
CC(C)C[C@@H]1NC(=O)[C@@H]2CSSC[C@H](NC(=O)[C@H](C(C)C)NC(=O)[C@H](CCCNC(=N)N)NC(=O)[C@@H](CCN)NC1=O)C(=O)N[C@@H](Cc1ccc(O)cc1)C(=O)N[C@@H](CC(N)=O)C(=O)N[C@@H](CCCN)C(=O)N[C@H](CCN)C(=O)N[C@@H](CCN)C(=O)N[C@@H](Cc1c[nH]c3ccccc13)C(=O)N[C@@H](CO)C(=O)N[C@@H](Cc1ccc(O)cc1)C(=O)N2 [Example 69, cyclo(-Val-Cys-Tyr-Asn-Orn-^DDab-Dab-Trp-Ser-Tyr-Cys-Leu-^DDab-Arg-)] (HELM PEPTIDE1{C.L.[NCC[C@@H](N[*:1])C(=O)[*:2]].R.V.C.Y.N.[Orn].[NCC[C@@H](N[*:1])C(=O)[*:2]].[Dab].W.S.Y}$PEPTIDE1,PEPTIDE1,1:R3-6:R3|PEPTIDE1,PEPTIDE1,1:R1-14:R2$$$V2.0)	1%	1 µg/mL	1 µg/mL	1 µg/mL
CC(C)C[C@@H]1NC(=O)[C@H](CCCNC(=N)N)NC(=O)[C@H]2CCCN2C(=O)[C@H](C(C)C)NC(=O)[C@H]([C@@H](C)O)NC(=O)[C@H](C(C)C)NC(=O)[C@@H]2CSSC[C@H](NC(=O)[C@H](Cc3ccc(O)cc3)NC(=O)[C@H]([C@@H](C)O)NC1=O)C(=O)N[C@@H](CCN)C(=O)N[C@H](CCN)C(=O)N[C@@H](CCN)C(=O)N[C@@H](Cc1c[nH]c3ccccc13)C(=O)N2 [Example 36, cyclo(-Leu-Thr-Tyr-Cys-Dab-^DDab-Dab-Trp-Cys-Val-Thr-Val-^DPro-Arg-)] (HELM PEPTIDE1{C.[Dab].[NCC[C@@H](N[*:1])C(=O)[*:2]].[Dab].W.C.V.T.V.[dP].R.L.T.Y}$PEPTIDE1,PEPTIDE1,1:R3-6:R3|PEPTIDE1,PEPTIDE1,1:R1-14:R2$$$V2.0)	2%	2 µg/mL	2 µg/mL	4 µg/mL
CC(C)[C@@H]1NC(=O)[C@@H]2CCCN2C(=O)[C@@H](C)NC(=O)[C@H](CO)NC(=O)[C@@H]2CC(=O)NCC[C@H](NC1=O)C(=O)N[C@@H](Cc1ccc(O)cc1)C(=O)N[C@@H](CCN)C(=O)N[C@@H](CN)C(=O)N[C@H](CCN)C(=O)N[C@@H](CCN)C(=O)N[C@@H](Cc1c[nH]c3ccccc13)C(=O)N[C@@H](CCN)C(=O)N[C@@H](C(C)(C)C)C(=O)N2 [Example 27, cyclo(-Val-Dab-Tyr-Dab-Dap-^DDab-Dab-Trp-Dab-tBuGly-Asp-Ser-^DAla-Pro-)] (cyclo(DS[dA]PV[Dab]Y[Dab][Dap][dDab][Dab]W[Dab][Tle]); lactam 1-6)	2%	1 µg/mL	0.5 µg/mL	0.5 µg/mL
CC[C@H](C)[C@@H]1NC(=O)[C@H](Cc2ccc(O)cc2)NC(=O)[C@@H](C)NC(=O)[C@H](CO)NC(=O)[C@H](C)NC(=O)[C@H](C(C)(C)C)NC(=O)[C@H](CCN)NC(=O)[C@H](Cc2c[nH]c3ccccc23)NC(=O)[C@H](CCN)NC(=O)[C@@H](CCN)NC(=O)[C@H](CCCN)NC(=O)[C@H](CCN)NC(=O)[C@H](Cc2ccc(O)cc2)NC(=O)[C@H]([C@@H](C)O)NC1=O [Example 49, cyclo(-Ile-Thr-Tyr-Dab-Orn-^DDab-Dab-Trp-Dab-tBuGly-Ala-Ser-^DAla-Tyr-)] (HELM PEPTIDE1{A.S.[dA].Y.I.T.Y.[Dab].[Orn].[NCC[C@@H](N[*:1])C(=O)[*:2]].[Dab].W.[Dab].[CC(C)(C)[C@H](N[*:1])C(=O)[*:2]]}$PEPTIDE1,PEPTIDE1,1:R1-14:R2$$$V2.0)	2%	4 µg/mL	2 µg/mL	2 µg/mL
CC(C)C[C@@H]1NC(=O)[C@H](CCCNC(=N)N)NC(=O)[C@@H](CCN)NC(=O)[C@H](C(C)C)NC(=O)[C@@H]2CSSC[C@H](NC1=O)C(=O)N[C@@H](Cc1ccc(O)cc1)C(=O)N[C@@H](C)C(=O)N[C@@H](CCCN)C(=O)N[C@H](CCN)C(=O)N[C@@H](CCN)C(=O)N[C@@H](Cc1ccccc1)C(=O)N[C@@H](C)C(=O)N[C@@H](Cc1ccc(O)cc1)C(=O)N2 [Example 19, cyclo(-Leu-Cys-Tyr-Ala-Orn-^DDab-Dab-Phe-Ala-Tyr-Cys-Val-^DDab-Arg-)] (HELM PEPTIDE1{A.[Orn].[NCC[C@@H](N[*:1])C(=O)[*:2]].[Dab].F.A.Y.C.V.[NCC[C@@H](N[*:1])C(=O)[*:2]].R.L.C.Y}$PEPTIDE1,PEPTIDE1,8:R3-13:R3|PEPTIDE1,PEPTIDE1,1:R1-14:R2$$$V2.0)	1%	1 µg/mL	1 µg/mL	0.5 µg/mL
CC(C)C[C@@H]1NC(=O)[C@H](CN)NC(=O)[C@@H](CCN)NC(=O)[C@H](C(C)C)NC(=O)[C@@H]2CSSC[C@H](NC1=O)C(=O)N[C@@H](Cc1ccc(O)cc1)C(=O)N[C@@H](CC(N)=O)C(=O)N[C@@H](CCCN)C(=O)N[C@H](CCN)C(=O)N[C@@H](CCN)C(=O)N[C@@H](Cc1c[nH]c3ccccc13)C(=O)N[C@@H](CO)C(=O)N[C@@H](Cc1ccc(O)cc1)C(=O)N2 [Example 68, cyclo(-Leu-Cys-Tyr-Asn-Orn-^DDab-Dab-Trp-Ser-Tyr-Cys-Val-^DDab-Dap-)] (cyclo(CV[dDab][Dap]LCYN[Orn][dDab][Dab]WSY); disulfide 1-6)	1%	1.25 µg/mL	0.5 µg/mL	0.75 µg/mL
